Measurements published in PMC7793975, “Design and Optimization of Quinazoline Derivatives: New Non-nucleoside Inhibitors of Bovine Viral Diarrhea Virus” (Frontiers in Chemistry, 2020).
Values after ≈ are worked out from the molar mass of the structure shown. Values joined by “and” are separate entries in the source; they are usually repeats but may differ in a detail not shown here. Equal values may be shown once. Read-outs that look alike come from different tables or passages of the source.

Tests used:
[1] = Bovine plasma stability (HPLC-MS); type: in vitro ADME; details: 120 min incubation, read-out: Stability t1/2 Bovine plasma
Experimental: (§1) Stability assays were performed according to the procedure described in a previous work (Leal et al., [2019]). Samples were taken at different incubation times and analyzed by high-performance liquid chromatography–mass spectrometry (HPLC–MS) using a Waters Alliance e2695 system (Waters Corporation, Milford, MA, USA) fitted with a Phenomenex Kinetex® XB-C18 column (150 × 4.6 mm, 5-μm particle size, Phenomenex Inc., Torrance, CA, USA) coupled to a Waters SQD2 single quadrupole mass spectrometer with an ESI source. A gradient elution was applied using 40% water and 0.1% acetic acid (mobile phase A) and 40% methanol (mobile phase B), with the following program: 0–3 min 40% B; 3–7 min 40–90% B; and 7–20 min 90% B. The flow rate was kept constant at 0.35 ml min^−1. […]
(§2) Compound 1.9 was selected to perform in vitro physicochemical studies (solubility and stability). The solubility (S) was evaluated at SGF (pH 1.2), SIF (pH 6.8), and PBS solution (pH 7.4), employing the shake-flask method with UV spectroscopy (Bollini et al., [2013]). […] The stability was evaluated by calculating the percentage of remaining drug (HPLC–MS) after contact with different incubation media (SIF, SGF, PBS, mouse, and bovine plasma) for 120 min. […] Neither compound modification nor degradation was detected after the different incubation periods. […]

[2] = Shake-flask solubility (UV-Vis); type: physicochemical; details: thermodynamic from solid
Experimental: Verapamil was used as internal control. More detailed information is available in the Supplementary Material.
(§3) UV-Visible spectrums were measured with a UV3600 UV -Vis-NIR spectrophotometer in a range of 500 -200 nm using a quartz cuvette. The measurements were determined at λ values corresponding to the maximum of absorption . Baselines were determined with MeOH :media (1:1) mixture . Sample concentrations were determined using maximum absorption value s. All compounds were tested in […]
(§4) Preparation of calibration curve
(§5) From this solution, different volumes were combined with MeOH:media (1:1) mixture to obtain concentrations between 2.0 – 40.0 µg/mL. […]
(§6) intestinal fluid (SIF, pH 6.8) or phosphate buffered saline solution (PBS, pH 7.4) was added. The vial contents were mixed at 1500 rpm at 37 °C for 24 h and then incubated at 37 °C for 24 h without stirring. Samples were filtered (0.2 μm, Sterile Acrodisc® 13, GelmanScience) before analysis.
(§7) The filtered solutions were diluted in MeOH:media (1:1) mixture to achieved final concentrations of 0.01 (SGF), 0.02 (SIF) and 0.04 µg/mL (PBS). Verapamil and pr ocaine were used as internal […]
(§8) DMSO and water/DMSO (98:2) stability […]
(§9) were measured in a range of 500-200 nm using a quartz cuvette and the absorption was determined at 331 nm. Samples with 1.0 mg of 1.9 in 1 mL of DMSO or water/DMSO (98:2) mixture were prepared, and they were kept at room temperature without stir ring. Independent samples were measured every 1 week over 5 weeks. For the measurements, solutions were diluted at 1/100 in DMSO and 1/50 in water:DMSO (98:2) mixture. The values in the chart are the mean of three

[3] = Mouse plasma stability (HPLC-MS); type: in vitro ADME; details: mouse/murine plasma, 120 min incubation; read-out: Stability t1/2 Mouse/murine plasma
Experimental: as §1, §2

[4] = Cytotoxicity assay (MTS/PMS); details: bovine, MDBK cells
Experimental: (§10) (A) Cytotoxicity. Sub-confluent MDBK cell monolayers grown in 96-well plates were treated with 2-fold serial dilutions of each compound in IM. Mock-treated cells were added as control. Cells were incubated and allowed to proliferate for 3 days at 37°C and 5% CO2. Cell viability was then determined by the MTS/PMS method. (B) Antiviral activity. Sub-confluent MDBK cell monolayers grown in 96-well plates were infected with BVDV NADL (MOI = 0.01) and treated with different concentrations of the compounds. Mock-infected cells and mock-treated infected cells were included as controls in each plate. After 3 days at 37°C and 5% CO2, cell viability was determined by the MTS/PMS method, and the percentage of the viral CPE inhibition was calculated.
(§11) MDBK cells were seeded in 96-well plates at a density of 1 × 10^4 cells per well in GM. After 24 h, the culture medium was removed, monolayers were washed twice with phosphate-buffered saline (PBS), and serial dilutions of the test compounds were made in E-MEM supplemented with donor horse serum (DHS, Gibco, IM) and added. Cultures were incubated for 3 days at 37°C, and then, cell viability was determined by the MTS/PMS method according to the manufacturer's instructions (Promega). After incubation for 3 h at 37°C and 5% CO2, the absorbance was determined at 490 nm. The 50% cytotoxic concentration (CC50) was defined as the concentration of compound that inhibited the proliferation of exponentially growing cells by 50% and was calculated by interpolation in dose–response curves.

MDBK cells = assay: Cytotoxicity assay (MTS/PMS); details: MDBK cells, 3 days
Experimental: as §10, §11

BVDV type 1 NADL strain = assay: Anti-BVDV assay (CPE reduction, MTS/PMS); type: cell-based, Bovine viral diarrhea virus; details: for EC50: BVDV NADL in MDBK cells, MOI 0.01, 3 days, reduces viral CPE by 50%, Inactive: <50% of inhibition of CPE at MNCC
Experimental: (A) Cytotoxicity. […] Mock-treated cells were added as control. […] (B) Antiviral activity.
Madin-Darby bovine kidney cells (MDBK NBL-1; ATCC CCL-22) were grown in Eagle's Minimum Essential Medium (E-MEM), supplemented with 10% biotechnological fetal bovine serum (Internegocios, Argentina) (GM) at 37°C and 5% CO2. The BVDV type 1 NADL strain, cytopathic biotype (BVDV-1, ATCC VR 534), was provided by Dr. Laura Weber (INTA Castelar, Argentina).
Then, serial dilutions of the test compounds in IM were added. […] After incubation for 3 days at 37°C and 5% CO2, the culture medium was removed, cell monolayers were washed twice with PBS, and IM supplemented with MTS/PMS was added to each well. The absorbance of each well was read at 490 nm. The EC50 was defined as the concentration of compound that prevented 50% of the virus-induced CPE and was calculated by interpolation in dose–response curves.

[5] = Stability in SGF, SIF, PBS (HPLC-MS); type: physicochemical
Experimental: Stability assays were performed according to the procedure described in a previous work (Leal et al., [2019]). Samples were taken at different incubation times and analyzed by high-performance liquid chromatography–mass spectrometry (HPLC–MS) using a Waters Alliance e2695 system (Waters Corporation, Milford, MA, USA) fitted with a Phenomenex Kinetex® XB-C18 column (150 × 4.6 mm, 5-μm particle size, Phenomenex Inc., Torrance, CA, USA) coupled to a Waters SQD2 single quadrupole mass spectrometer with an ESI source. A gradient elution was applied using 40% water and 0.1% acetic acid (mobile phase A) and 40% methanol (mobile phase B), with the following program: 0–3 min 40% B; 3–7 min 40–90% B; and 7–20 min 90% B. The flow rate was kept constant at 0.35 ml min^−1. After each sample injection, the gradient was returned to its initial conditions in 16 min. The injection volume was 5 μl. The column temperature was 35°C. The mass spectrometer was operated in positive ion mode with a probe capillary voltage of 2.5 kV. The sampling cone voltage was set to 35.0 V. The source and desolvation gas temperatures were set at 150 and 350°C, respectively. The nitrogen gas desolvation flow rate was 600 L h^−1, and the cone gas flow rate was 10 L h^−1. The mass spectrometer was calibrated across the range of m/z 20–2,023 with a sodium and cesium iodide solution. Data were acquired in scan mode with a scan duration of 0.2 s and in SIR mode with unit resolution. Data acquisition and processing were carried out using MassLynx software, version 4.1. […]
as §2

[6] = DMSO and water/DMSO (98:2) stability (UV-Vis); type: physicochemical; details: room temperature
Experimental: as §3, §4, §5, §6, §7, §8
as §9, with “For the measurements, solutions were diluted at 1/100 in DMSO and 1/50 in water:DMSO (98:2) mixture. The values in the chart are the mean of three” left out

OCCN1CCN(c2nc(-c3ccccc3)nc3ccccc23)CC1 [Compound 1.9, 2-[4-(2-Phenylquinazolin-4-yl)piperazin-1-yl]ethanol]
half-life [1]: > 2 h
solubility at 24 h ([2]; phosphate buffered saline (PBS), aqueous buffer, PBS pH 7.4, 37 °C, read-out: Solubility PBS): 300 ± 100 µg/mL (≈ 897 µM)
solubility at 24 h ([2]; simulated gastric fluid (SGF), simulated gastric fluid pH 1.2, 37 °C, read-out: Solubility SGF): 8700 ± 400 µg/mL (≈ 26000 µM)
solubility at 24 h ([2]; simulated intestinal fluid (SIF), fassgf or other biorelevant, simulated intestinal fluid pH 6.8, 37 °C, read-out: Solubility SIF): 400 ± 200 µg/mL (≈ 1200 µM)
half-life [3]: > 2 h
CC50 at 3 days [4]: 32000 ± 1900 nM
MNCC (maximum non-cytotoxic concentration) (MDBK cells): 12.5 µM and 12.5 ± 2.4 µM
EC50 (BVDV type 1 NADL strain; read-out: EC50): 1800 ± 400 nM
EC50 (BVDV type 1 NADL strain; Bovine viral diarrhea virus isolates and strains, MDBK, 72 h): 1700 ± 400 nM
SI (CC50/EC50) (BVDV type 1 NADL strain; in vitro selectivity index, MDBK cells / BVDV NADL): 17.8
half-life ([5]; PBS pH 7.4, 120 min incubation, read-out: Stability t1/2 PBS): > 2 h
half-life ([5]; simulated gastric fluid (SGF), SGF pH 1.2, 120 min incubation, read-out: Stability t1/2 SGF): > 2 h
half-life ([5]; simulated intestinal fluid (SIF), SIF pH 6.8, 120 min incubation, read-out: Stability t1/2 SIF): > 2 h
time stable in DMSO ([6]; 1.0 mg/mL in DMSO): ≥ 5 weeks
time stable in water/DMSO (98:2) ([6]; 1.0 mg/mL in water/DMSO (98:2)): ≥ 5 weeks
